In ChEMBL document CHEMBL1125141, “Structure-activity relationships of N2-substituted guanines as inhibitors of HSV1 and HSV2 thymidine kinases” (J Med Chem, 1990) one finds Ki and IC50 data, which are given here for 17 compounds.

Broadly, the Ki is a dissociation constant, usually derived from enzyme kinetics or from competition with a known ligand. Higher therefore signals weaker binding. Usually IC50 stands for the concentration at which inhibition is half-maximal. A higher IC50 goes with a need for much substance.

One experiment concerns the target T1, Thymidine kinase (Human alphaherpesvirus 1, UniProt Q9QNF7).
T1 sequence (Q9QNF7 whole entry): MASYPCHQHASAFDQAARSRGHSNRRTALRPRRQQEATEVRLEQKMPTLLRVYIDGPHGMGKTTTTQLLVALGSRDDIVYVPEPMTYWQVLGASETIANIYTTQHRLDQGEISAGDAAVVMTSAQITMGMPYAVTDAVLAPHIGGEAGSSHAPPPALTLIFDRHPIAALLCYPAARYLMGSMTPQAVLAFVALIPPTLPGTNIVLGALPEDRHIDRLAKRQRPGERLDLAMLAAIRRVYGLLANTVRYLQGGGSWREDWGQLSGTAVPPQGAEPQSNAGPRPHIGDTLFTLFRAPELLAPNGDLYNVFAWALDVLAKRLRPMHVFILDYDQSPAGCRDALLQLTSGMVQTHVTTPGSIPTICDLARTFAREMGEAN
The experiment in a line: Inhibition of TdR phosphorylation using thymidine kinase (TK) assay for herpes simplex virus type 1 (HSV-1). It is filed as functional.
With `CCCCCCNC1=NC(=O)C2N=CN([C@H]3C[C@H](O)[C@@H](CO)O3)C2=N1` (some centres not stated), the inhibition constant (Ki) came out at 2.6 µM.

The target in a further experiment is T1, Thymidine kinase. The experiment in a line: Inhibition of TdR phosphorylation using thymidine kinase assay for herpes simplex virus type 1. It is filed as functional.
Turning to `CCCCc1ccc(Nc2nc3nc[nH]c3c(=O)[nH]2)cc1`, half-maximal inhibition (IC50) required 50 µM.

`O=c1nc(Nc2cccc(CO)c2)[nH]c2nc[nH]c12`: the IC50 worked out at 25 µM.

Consider `O=c1[nH]c(NCc2ccc(Cl)cc2)nc2nc[nH]c12`, for which the IC50 is 8.5 µM.

With `OCCCCCNc1nc(O)c2[nH]cnc2n1`, the IC50 was found to be 100 µM.

Compound `Oc1[nH]c(Nc2ccc(F)c(Cl)c2)nc2ncnc1-2` returned an IC50 of 8 µM.

With `O=c1[nH]c(Nc2ccc(F)c(F)c2)nc2nc[nH]c12`, the IC50 was determined as 50 µM.

`CCc1cccc(Nc2nc3nc[nH]c3c(=O)[nH]2)c1` registered an IC50 of 2.5 µM.

On to `Cc1ccc(Nc2nc3nc[nH]c3c(=O)[nH]2)cc1`, for which half-maximal inhibition (IC50) was put at 50 µM.

`O=c1[nH]c(Nc2cccc(C(F)(F)F)c2)nc2nc[nH]c12` returned an IC50 of 0.15 µM.

In turn, `Oc1[nH]c(Nc2cccc(Cl)c2)nc2ncnc1-2` showed an IC50 of 1.3 µM.

As to `Oc1[nH]c(Nc2ccc(Br)cc2)nc2ncnc1-2`, the IC50 is 1 µM.

As to `O=c1[nH]c(Nc2ccc(O)cc2)nc2nc[nH]c12`, the IC50 stood at 140 µM.

The compound `Oc1[nH]c(Nc2ccc3ccccc3c2)nc2ncnc1-2` had an IC50 of 40 µM.

`Oc1[nH]c(Nc2ccc(C(F)(F)F)cc2)nc2ncnc1-2`: the IC50 was found to be 30 µM.

Consider `CCCCCCNc1nc(O)c2[nH]cnc2n1`, for which the IC50 turned out to be 55 µM.

In the case of `Oc1[nH]c(Nc2ccc(Br)c(Br)c2)nc2ncnc1-2`, it took 3 µM to reach half-maximal inhibition (IC50).
